Measured values published in patent US5674878A, “Anellated dihydropyridines and the use thereof for the production of pharmaceutical preparations” (Boehringer Ingelheim KG, priority 1992, dated 1997).

test system: unselective cation channels (UCC); experiment: Thapsigargin (0.1 μM) stimulated Ca^2+ entry through unselective cation channels in fura-2-charged RBL-hm 1 cells; assay type: cell-based, rat; conditions: RBL-hm 1 cells, Thapsigargin (0.1 μM) stimulation, 10 μM test substance (Table 21)
Excerpt: As a measurement of the cell activation or as a measurement of the inhibition thereof by UCC blockers, the kinetics of the cytoplasmic calcium ion concentration in fura-2-charged cells is quantified fluorometrically using the method described by GRYNKIEWICZ et al. (1985).
Consequently the Ca^2+ -stores are rapidly depleted. As described by J. PUTNEY (Calcium, 11, 611-624, 1990) the depletion of these stores constitutes the physiological stimulation for opening up unselective cation channels in the cell membrane. The result of this is a massive influx of Na^+ and Ca^2+ into the cell. Because of these properties, Thapsigargin is suitable as an indirect stimulator for agonist- and IP3-independent opening up of the unselective cation channels.
The functional endothelin antagonism of the substances according to the invention is mediated through a blockade of the unselective cation channels. Consequently, detection of a functional Thapsigargin-antagonism on RBL-hm1 cells is also a suitable screening method for functional endothelin antagonists.
For screening purposes, fura-2-charged adhesive RBL-hm 1 cells are stimulated with 0.1 μM Thapsigargin in a Ca^2+ -free incubation medium. After 4 minutes, extracellular Ca^2+ is restored to a concentration of 1.5 mM and, using the fura-2-fluorescence, the excessive increase in the cytoplasmic Ca^2+ -concentration caused by a massive transmembranal Ca^2+ -entry through unselective cation channels is recorded.
This entry is to be inhibited solely by unselective cation channel blockers in a dosage-dependent manner. Neither conventional calcium antagonists nor specific blockers of agonists which stimulate the IP3 -turnover are able to inhibit the transmembranal Ca^2+ -entry triggered indirectly by Thapsigargin. The compounds of the present invention are distinguished by their inhibition of UCC.
The fluorometric calcium measurement in the cytoplasm of individual adhering RBL-hm1 cells is carried out analogously to the method described by KUDO and OGURA (1986) for neuronal cells. An AXIOVERT 35 fluorescence microscope made by ZEISS is used in conjunction with an imaging system made by HAMAMATSU, consisting of the ICMS-image processing system, residual light camera with control unit and image intensifier DVS 3000.
The kinetics of the cytoplasmic Ca^2+ -concentration is recorded continuously as a concentration/time curve after the cell activation stimulated by Thapsigargin (0.1 μM). The curves of two activated cell cultures are compared in the presence and absence of 10 μM test substance. The area under these curves (area under the curve=AUC) is integrated and recorded as a measurement of cell activation. The inhibitory potency of the UCC-blockers tested is determined using the following equation: [formula] %H=the percentage inhibition of the calcium entry through unselective cation channels which is stimulated and inhibited by 10 μM of test substance.
AUCinh =area under the curve recorded in the presence of the stimulant plus 10 μM inhibitory test substance.
AUCcontrol =area under the curve which is recorded only after the addition of the stimulant.
The percentage inhibition of UCC after Thapsigargin stimulation (0.1 μM Thapsigargin) in RBL-hm 1 cells is given. The uniform concentration of the test substances is 10^-5 mol).

In order of falling “% Inhibition” value:
1. COc1cc2c(cc1OC)C(=C(C(=O)N1CCN(Cc3ccccc3)CC1)c1ccccc1)NCC2 [compound 42]  84.83%
2. CCOc1ccccc1CCNC(=O)C(=C1NCCc2cc(OC)c(OC)cc21)c1ccccc1 (single isomer, unassigned) [K]  76.31%
3. CCN(CC)C(=O)C(C1=NCCc2cc(OC)c(OC)cc21)c1ccccc1 (stereo not shown) [compound 37]  75.77%
4. COc1cc2c(cc1OC)C(C(C(=O)NCCc1ccc(OC)c(OC)c1OC)c1ccccc1)=NCC2 (stereo not shown) [B]  72.35%
5. COc1ccc(CCNC(=O)C(=C2NCCc3c2[nH]c2ccccc32)c2ccccc2)cc1OC [compound 83]  66.76%
6. COc1cc2c(cc1OC)C(C(C(=O)NCc1cc(C)ccc1C)c1ccccc1)=NCC2 (stereo not shown) [compound 106]  65.69%
7. COc1cc2c(cc1OC)C(=C(C(=O)NCC13CC4CC(CC(C4)C1)C3)c1ccccc1)NCC2 [compound 132]  65.14%
8. COc1cc2c(cc1OC)C(C(C(=O)NCC(c1ccccc1)c1ccccc1)c1ccccc1)=NCC2 (stereo not shown) [C]  63.45%
9. COc1cc2c(cc1OC)C(C(C(=O)NCCc1ccsc1)c1ccccc1)=NCC2 (stereo not shown) [O]  63.32%
10. O=C(NCCN1CCOCC1)C(=C1NCCc2cc3c(cc21)OCO3)c1ccccc1 [compound 48]  61.34%
11. COc1cc2c(cc1OC)C(C(C(=O)Nc1cccnc1)c1ccccc1)=NCC2 (stereo not shown) [compound 33]  60.55%
12. COc1cc2c(cc1OC)C(C(C(=O)NCCC(c1ccccc1)c1ccccc1)c1ccccc1)=NCC2 (stereo not shown) [compound 101]  59.62%
13. COCCCNC(=O)C(=C1NCCc2cc(OC)c(OC)cc21)c1ccccc1 [compound 18]  57.53%
14. COc1cc2c(cc1OC)C(=C(C(=O)NCCc1cccc(OC)c1OC)c1ccccc1)NCC2 [G]  57.52%
15. COc1cc2c(cc1OC)C(=C(C(=O)NCCCN(C)C)c1ccccc1)NCC2 [compound 20]  57.38%
16. COc1cc2c(cc1OC)C(C(C(=O)N1CCCC1)c1ccccc1)=NCC2 (stereo not shown) [41 (Structure I)]  57.22%
17. COc1cc2c(cc1OC)C(=C(C(=O)NC(C)COc1ccccc1)c1ccccc1)NCC2 (stereo not shown) [H]  57.06%
18. COc1cc(CCNC(=O)C(C2=NCCc3cc(OC)c(OC)cc32)c2ccccc2)cc(OC)c1 (stereo not shown) [compound 104]  54.67%
19. O=C(NCCN1CCOCC1)C(=C1NCCc2c1[nH]c1ccccc21)c1ccccc1 [compound 89]  53.38%
20. COCCNC(=O)C(=C1NCCc2cc(OC)c(OC)cc21)c1ccccc1 [compound 17]  52.53%
21. COc1cc2c(cc1OC)C(C(C(=O)N1CCN(C)CC1)c1ccccc1)=NCC2 (stereo not shown) [compound 43]  48.69%
22. COc1cc2c(cc1OC)C(C(C(=O)N1CCOCC1)c1ccccc1)=NCC2 (stereo not shown) [compound 39]  48.62%
23. COc1cc2c(cc1OC)C(C(C(=O)NCc1c(F)cccc1OC)c1ccccc1)=NCC2 (stereo not shown) [F]  48.01%
24. COc1cccc(CCNC(=O)C(C2=NCCc3cc(OC)c(OC)cc32)c2ccccc2)c1 (stereo not shown) [compound 105]  45.09%
25. COc1cc2c(cc1OC)C(C(C(=O)NCCCc1ccc(OC)c(OC)c1OC)c1ccccc1)=NCC2 (stereo not shown) [compound 108]  44.45%

same assay, conditions: Table 13; 10 μM test substance

In order of rising “% Inhib.” value:
1. O=C(NCCc1ccc(Cl)cc1)C(C1=NCCc2ccsc21)c1ccccc1 (stereo not shown)  15.26%
2. CCOc1ccccc1CCNC(=O)C(C1=NCCc2ccsc21)c1ccccc1 (stereo not shown)  24.03%
3. O=C(NCCc1ccc(Cl)cc1)C(=C1NCCc2ccsc21)c1ccccc1  26.54%
4. COc1ccc(CCNC(=O)C(=C2NCCc3ccsc32)c2ccccc2)cc1  65.50%
5. COc1ccc(CCNC(=O)C(C2=NCCc3ccsc32)c2ccccc2)cc1 (stereo not shown)  67.73%

same assay, conditions: Table 14; 10 μM test substance

In order of rising “% Inhib.” value:
1. COc1cc2c(cc1OC)C(C(C(=O)N(CCCc1ccccc1)CCCc1ccccc1)c1ccccc1)=NCC2 (stereo not shown)  22.39%
2. COc1cc2c(cc1OC)C(C(C(=O)NCC1CCCCC1)c1ccccc1)=NCC2 (stereo not shown)  30.87%
3. COc1ccc(CNC(=O)C(C2=NCCc3cc(OC)c(OC)cc32)c2ccccc2)cc1OC (stereo not shown)  50.90%
4. COc1ccc(CNC(=O)C(C2=NCCc3cc(OC)c(OC)cc32)c2ccccc2)c(OC)c1 (stereo not shown)  56.20%
5. COc1cc2c(cc1OC)C(C(C(=O)NCCC1CCCN1C)c1ccccc1)=NCC2 (stereo not shown)  60.82%
6. COc1cc2c(cc1OC)C(C(C(=O)NCCCc1ccccc1)c1ccccc1)=NCC2 (stereo not shown)  73.55%
7. COc1cc2c(cc1OC)C(C(C(=O)NCCc1ccc(S(N)(=O)=O)cc1)c1ccccc1)=NCC2 (stereo not shown)  79.17%
8. COc1cc2c(cc1OC)C(C(C(=O)NC(C)CCc1ccccc1)c1ccccc1)=NCC2 (stereo not shown)  82.76%

same assay, conditions: Table 15; 10 μM test substance

For `COc1cc2c(cc1OC)C(C(C(=O)NCCCc1ccc(C(C)(C)C)cc1)C1CCCCC1)=NCC2` (stereo not shown), the “% Inhib.” value was 84.43%.

same assay, conditions: Table 16; %inhibition, 10 μM test substance

In order of falling “%” value:
1. Cc1cc2c(cc1OCc1ccccc1)CCN=C2C(C(=O)NCCc1cccc(C(F)(F)F)c1)c1ccccc1 (stereo not shown)  49.03%
2. O=C(NCCc1cccc(C(F)(F)F)c1)C(C1=NCCc2cc(OCc3ccccc3)c(Cl)cc21)c1ccccc1 (stereo not shown) [drawing 223]  32.90%
3. COc1cc2c(cc1OCc1ccccc1)C(C(C(=O)NCCc1cccc(C(F)(F)F)c1)c1ccccc1)=NCC2 (stereo not shown)  22.9%
4. O=C(NCCc1cccc(C(F)(F)F)c1)C(C1=NCCc2cc(OCc3ccccc3)ccc21)c1ccccc1 (stereo not shown)  14.65%

same assay, conditions: Table 17; 10 μM test substance

In order of falling “percent inhibition of Ca2+ entry” value:
1. COc1cc2c(cc1OC)C(C(C(=O)NC(C)COc1c(C)cccc1C)c1ccccc1)=NCC2 (stereo not shown)  72.18%
2. COc1ccccc1CCNC(=O)C(C1=NCCc2cc(OC)c(OC)cc21)c1ccccc1 (stereo not shown)  69.7%
3. COc1cc(N=[N+]=[N-])ccc1CCNC(=O)C(C1=NCCc2cc(OC)c(OC)cc21)c1ccccc1 (stereo not shown) [drawing 231]  68.2%
4. COc1cccc(OCCNC(=O)C(C2=NCCc3cc(OC)c(OC)cc32)c2ccccc2)c1 (stereo not shown)  45.26%
5. COc1cccc(OCCN2CCN(C(=O)C(C3=NCCc4cc(OC)c(OC)cc43)c3ccccc3)CC2)c1 (stereo not shown)  41.06%
6. COc1cc(N=[N+]=[N-])c(I)cc1CCNC(=O)C(C1=NCCc2cc(OC)c(OC)cc21)c1ccccc1 (stereo not shown)  36.95%
7. COc1ccc(CCN(CC(C)C)C(=O)C(C2=NCCc3cc(OC)c(OC)cc32)c2ccccc2)cc1OC (stereo not shown)  12.82%
8. COc1cc2c(cc1OC)C(C(C(=O)N1CCN(c3nc(N)c4cc(OC)c(OC)cc4n3)CC1)c1ccccc1)=NCC2 (stereo not shown)  7.77%

same assay, conditions: Table 18; 10 μM test substance

In order of rising “percent inhibition of Ca2+ entry” value:
1. COc1cc2c(cc1OC)C(C(C(=O)N(CCc1ccc(OC)c(OC)c1OC)CCc1ccc(OC)c(OC)c1OC)c1ccc(N=[N+]=[N-])c(I)c1)=NCC2 (stereo not shown)  5.81%
2. COc1cc2c(cc1OC)C(C(C(=O)N(CCc1ccc(OC)c(OC)c1OC)CCc1ccc(OC)c(OC)c1OC)c1ccc(Cl)cc1Cl)=NCC2 (stereo not shown)  30.79%
3. COc1cc2c(cc1OC)C(C(C(=O)N(CCc1ccc(OC)c(OC)c1OC)CCc1ccc(OC)c(OC)c1OC)c1ccccc1OC)=NCC2 (stereo not shown)  41.8%
4. COc1ccc(C(C(=O)N(CCc2ccc(OC)c(OC)c2OC)CCc2ccc(OC)c(OC)c2OC)C2=NCCc3cc(OC)c(OC)cc32)cc1OC (stereo not shown)  53.1%
5. COc1cc2c(cc1OC)C(C(C(=O)N(CCc1ccc(OC)c(OC)c1OC)CCc1ccc(OC)c(OC)c1OC)c1ccc(F)cc1)=NCC2 (stereo not shown)  54.30%
6. COc1cc2c(cc1OC)C(C(C(=O)N(CCc1ccc(OC)c(OC)c1OC)CCc1ccc(OC)c(OC)c1OC)c1ccc(N=[N+]=[N-])cc1)=NCC2 (stereo not shown)  61.3%
7. COc1cc2c(cc1OC)C(C(C(=O)N(CCc1ccc(OC)c(OC)c1OC)CCc1ccc(OC)c(OC)c1OC)c1ccccc1C)=NCC2 (stereo not shown)  68.22%
8. COc1ccc(C(C(=O)N(CCc2ccc(OC)c(OC)c2OC)CCc2ccc(OC)c(OC)c2OC)C2=NCCc3cc(OC)c(OC)cc32)cc1 (stereo not shown)  73.7%

same assay, conditions: Table 20; 10 μM test substance

In order of rising “percent inhibition of Ca2+ entry” value:
1. Cc1cc2c(cc1OCc1ccccc1)CCN=C2C(C(=O)NCCc1cccc(C(F)(F)F)c1)c1ccccc1 (stereo not shown)  49.03%
2. COc1cc2c(cc1OCc1ccccc1)CCN=C2C(C(=O)NCCC(C)(C)C)c1ccccc1 (stereo not shown) [NHCH2 CH2C(CH3)3]  61.85%
